Data on 15 compounds can be found in PubChem BioAssay (NCI).

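Results reflect a 48-hour exposure of cells in 96-well plates to compound at five concentrations. GI50 marks 50% less growth. TGI: concentration producing complete growth inhibition.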

Test systems include A549 NSCLC; BT-549 breast; CAKI-1 renal; CCRF-CEM leukemia; HCT-15 colon; SF-539 CNS; TK-10 renal; UACC-257 melanoma; MALME-3M melanoma.
Holding throughout (assay): inhibition of tumour cell growth, NCI panel, 48 h

As to `O=c1cc(-c2ccccc2)oc2ccc(OC/C(=N/O)c3ccc(F)cc3)cc12`, the GI50 in the assay with A549 NSCLC was 7.12 µM; with BT-549 breast it was 1.01 µM; in the assay on CAKI-1 renal it was 3.57 µM; with CCRF-CEM leukemia it was 3.24 µM; with HCT-15 colon, 2.99 µM; in the assay with SF-539 CNS it was 1.92 µM. Also, the GI50 in the assay with TK-10 renal was > 50 µM; in the assay on UACC-257 melanoma, 9.77 µM. The TGI was > 50 µM with A549 NSCLC; 2.67 µM in the assay with BT-549 breast; 16.2 µM in the assay with CAKI-1 renal; 17.1 µM with CCRF-CEM leukemia; 14.5 µM in the assay with HCT-15 colon; 4.06 µM in the assay with SF-539 CNS. Further, the TGI with TK-10 renal was > 50 µM; in the assay with UACC-257 melanoma, 38.2 µM.

Consider `CC(C)=O.O=C([O-])C(F)(F)F.O=C([O-])C(F)(F)F.O=C([O-])C(F)(F)F.O=C([O-])C(F)(F)F.[Rh+2].[Rh+2]`, for which the GI50 in the assay with A549 NSCLC is > 100 µM; in the assay with CCRF-CEM leukemia, 35.5 µM; in the assay with HCT-15 colon it was > 100 µM; with SF-539 CNS, > 100 µM; in the assay on TK-10 renal, 81.4 µM; in the assay on UACC-257 melanoma, > 100 µM. The TGI in the assay with A549 NSCLC, in the assay with CCRF-CEM leukemia, with HCT-15 colon, with SF-539 CNS, in the assay with TK-10 renal and in the assay with UACC-257 melanoma was > 100 µM throughout.

For `S=c1nc(C(c2ccccc2)c2ccccc2)[nH][nH]1`, the TGI in the assay on A549 NSCLC, in the assay with CCRF-CEM leukemia, with HCT-15 colon, in the assay with MALME-3M melanoma, in the assay with SF-539 CNS and in the assay on TK-10 renal was > 100 µM in each case. Further, the TGI with UACC-257 melanoma is > 100 µM.

Turning to `O=c1/c(=C/c2c(O)ccc3ccccc23)sc2nc3ccccc3n12`, the TGI in the assay on A549 NSCLC, in the assay on CAKI-1 renal, in the assay on CCRF-CEM leukemia, with HCT-15 colon, in the assay with MALME-3M melanoma and in the assay with SF-539 CNS was > 100 µM each time. In addition, the TGI with TK-10 renal and in the assay on UACC-257 melanoma was > 100 µM throughout.

In the case of `O=C1C=CC(=O)C2C1Cc1ccccc1C2c1ccccc1` (stereo unspecified), the TGI was > 100 µM in the assay with A549 NSCLC; > 100 µM in the assay with CAKI-1 renal; 68.7 µM in the assay with CCRF-CEM leukemia; > 100 µM in the assay on HCT-15 colon; > 100 µM in the assay on MALME-3M melanoma; > 100 µM in the assay with SF-539 CNS. For the same compound, the values for the TGI in the assay on TK-10 renal and with UACC-257 melanoma were > 100 µM and 70.2 µM, respectively.

Regarding `COC1=CC(=O)C(Br)=CC1=O`, the TGI is > 100 µM in the assay on A549 NSCLC; 32.4 µM in the assay with CAKI-1 renal; 8.84 µM in the assay on CCRF-CEM leukemia; 47 µM with HCT-15 colon; 35.6 µM with MALME-3M melanoma; 35.8 µM with TK-10 renal. The TGI in the assay on UACC-257 melanoma was found to be 31.1 µM.

`Cn1cnc([N+](=O)[O-])c1Sc1nnnn1C`: the TGI in the assay on A549 NSCLC is > 100 µM; with CAKI-1 renal it was 31.8 µM; with CCRF-CEM leukemia, 25 µM; with MALME-3M melanoma, 26.9 µM; in the assay on SF-539 CNS, 36.3 µM; in the assay with TK-10 renal it was 31.4 µM. In the assay on UACC-257 melanoma, this compound gave a TGI of 29.8 µM.

For the compound `CCC[CH2][Sn]([CH2]CCC)([CH2]CCC)[O]C(=O)C(OC(C)=O)c1ccccc1` (stereo unspecified), the GI50 is 0.143 µM in the assay with A549 NSCLC; 0.159 µM in the assay on CAKI-1 renal; 0.144 µM in the assay on HCT-15 colon; 0.143 µM in the assay with MALME-3M melanoma; 0.165 µM in the assay on SF-539 CNS; 0.244 µM in the assay with TK-10 renal. Moreover, the GI50 in the assay on UACC-257 melanoma was 0.149 µM. Further, the TGI in the assay with A549 NSCLC stood at 0.309 µM; with CAKI-1 renal, 0.3 µM; in the assay with HCT-15 colon, 0.28 µM; with MALME-3M melanoma, 0.274 µM; in the assay on SF-539 CNS, 0.306 µM; with TK-10 renal it was 0.888 µM. Besides, in the assay on UACC-257 melanoma, the TGI was 0.284 µM.

On to `O=c1nc(NC(c2ccccc2)(c2ccccc2)c2ccccc2)ccn1CCCl`, for which the TGI in the assay with A549 NSCLC is > 100 µM; in the assay on HCT-15 colon, > 100 µM; with MALME-3M melanoma, 29.2 µM; in the assay with SF-539 CNS, 31.7 µM; with TK-10 renal, 56.2 µM.

As for `C#CCN(N=O)C(=O)NCCCCC(NC(=O)OCc1ccccc1)C(=O)OCc1ccccc1` (stereo unspecified), the TGI in the assay with CAKI-1 renal was 56.6 µM; in the assay with CCRF-CEM leukemia, 45.1 µM; in the assay on HCT-15 colon it was > 100 µM; with MALME-3M melanoma it was 71.6 µM; in the assay with SF-539 CNS, 37.4 µM; in the assay on TK-10 renal, > 100 µM. For the same compound, the TGI in the assay on UACC-257 melanoma is > 100 µM.

On to `O=S(=O)(c1ccccc1)c1nccs1`, for which the TGI with A549 NSCLC, in the assay with CAKI-1 renal, with HCT-15 colon, in the assay on SF-539 CNS, in the assay on TK-10 renal and in the assay on UACC-257 melanoma was > 100 µM each time.

With `O=C1OC(c2ccccc2)(c2ccccc2)c2ccc3ccc(F)cc3c21`, the TGI in the assay on A549 NSCLC, in the assay on CAKI-1 renal, with CCRF-CEM leukemia, with HCT-15 colon, in the assay on MALME-3M melanoma and with SF-539 CNS was > 100 µM throughout. Moreover, the TGI in the assay on TK-10 renal and with UACC-257 melanoma was > 100 µM each time.

`CCN(CC)CCCOc1ccc2ncnc(Nc3ccc(Oc4cccc(C(F)(F)F)c4)c(Cl)c3)c2c1`: the GI50 is 1.4 µM with CAKI-1 renal; 2.26 µM in the assay with CCRF-CEM leukemia; 1.57 µM in the assay on MALME-3M melanoma; 1.74 µM in the assay with SF-539 CNS; 1.14 µM with TK-10 renal. Besides, the TGI in the assay with CAKI-1 renal worked out at 3.1 µM; with CCRF-CEM leukemia, 14.2 µM; with MALME-3M melanoma, 3.04 µM; in the assay with SF-539 CNS, 3.17 µM; in the assay on TK-10 renal, 2.56 µM.

With `Cc1ccc(NC(=O)C(=O)C(C(=O)c2ccc3ccccc3c2)C2OC(=O)c3ccccc32)c(C)c1` (stereo unspecified), the TGI is 62.8 µM in the assay on A549 NSCLC; 32 µM in the assay with CAKI-1 renal; 78.1 µM in the assay on CCRF-CEM leukemia; 40.2 µM with HCT-15 colon; 22.4 µM in the assay with MALME-3M melanoma; 19.4 µM in the assay with SF-539 CNS. Besides, the TGI in the assay on TK-10 renal is 42.9 µM; in the assay on UACC-257 melanoma, 41.4 µM.

Take `CCO/C(CCn1[nH]c(=O)c(Cl)c(Cl)c1=O)=N\NC(=O)C(=O)NN`: the TGI in the assay on A549 NSCLC, with CAKI-1 renal, in the assay with CCRF-CEM leukemia, in the assay with HCT-15 colon, in the assay on MALME-3M melanoma and with SF-539 CNS was > 100 µM throughout. The TGI with TK-10 renal and in the assay on UACC-257 melanoma was > 100 µM throughout.
